Results: patent US9994594B2, “Inhibitors of arginase and their therapeutic applications” (MARS, INCORPORATED, priority 2010, dated 2018)
pIC50: −log10 of the molar value. Counter-ions that a name gives are not always drawn. Like-named read-outs stand apart in the source and are kept apart here. Values belong to the compound of their own block, whether it stands above or below them.

How the values were obtained:
[1] = biological target: T1, human arginase I (ARG I) (Homo sapiens, UniProt P05089); test: Inhibition of arginase I, spectrophotometric urea assay at 530 nm; type: biochemical; conditions: read-out: Potency (ARG I)
T1 sequence (P05089 1-322): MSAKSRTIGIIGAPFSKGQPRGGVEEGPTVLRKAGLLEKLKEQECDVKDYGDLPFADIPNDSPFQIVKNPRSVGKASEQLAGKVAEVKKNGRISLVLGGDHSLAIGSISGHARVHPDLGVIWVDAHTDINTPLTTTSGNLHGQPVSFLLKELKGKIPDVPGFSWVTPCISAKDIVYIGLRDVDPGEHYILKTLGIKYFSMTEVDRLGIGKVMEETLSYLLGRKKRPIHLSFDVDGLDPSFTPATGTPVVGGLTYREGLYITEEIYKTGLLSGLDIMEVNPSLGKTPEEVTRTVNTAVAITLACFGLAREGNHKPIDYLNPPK
In short: (§1)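 IC50 was derived by regression of OD530 normalized to uninhibited-enzyme controls against log concentration. Urea from 60-min, 37 °C turnover of L-arginine with manganese sulfate was detected after acid o-phthaldialdehyde/primaquine quench and 10 min colour development. Arginase I and II came from 100 ng/ml stocks in pH 7.4 phosphate with ovalbumin.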

[2] = biological target: T2, arginase II (ARG II) (Homo sapiens, UniProt P78540); test: Inhibition of arginase II, spectrophotometric urea assay at 530 nm; type: biochemical
T2 sequence (P78540 23-354): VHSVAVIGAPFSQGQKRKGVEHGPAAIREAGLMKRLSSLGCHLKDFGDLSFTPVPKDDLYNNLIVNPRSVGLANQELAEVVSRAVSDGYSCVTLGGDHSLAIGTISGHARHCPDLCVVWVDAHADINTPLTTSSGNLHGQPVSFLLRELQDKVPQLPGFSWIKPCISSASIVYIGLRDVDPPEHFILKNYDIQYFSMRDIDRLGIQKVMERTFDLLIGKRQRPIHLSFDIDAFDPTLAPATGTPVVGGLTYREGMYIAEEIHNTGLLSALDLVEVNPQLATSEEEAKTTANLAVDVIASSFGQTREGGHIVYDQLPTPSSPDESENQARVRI
In short: as §1

[3] = Formula II compounds, Table 2-A
[4] = Formula II compounds, Table 2-A, read-out: Potency (ARG)
[5] = Formula I compounds, Table 2, read-out: Potency (ARG II)

Compound: NC(CCCCB(O)O)(C(=O)O)C1CCN(c2ncc(Cl)cc2Cl)CC1 (centres unmarked) [8-A, 2-amino-6-borono-2-(1-(3,5-dichloropyridin-2-yl)piperidin-4-yl)hexanoic acid]
pIC50 [1, 3]: 5.30 to 5.70 | pIC50 [2, 4]: 5.30 to 5.70

Compound: N[C@](CCCCB(O)O)(CCN1Cc2ccccc2C[C@H]1CO)C(=O)O [compound 1, (R)-2-amino-6-borono-2-(2-((S)-3-(hydroxymethyl)-3,4-dihydroisoquinolin-2(1H)-yl)ethyl)hexanoic acid dihydrochloride]
pIC50 ([1]; Formula I compounds, Table 2): 6.00 to 6.60 | pIC50 [2, 5]: 6.00 to 6.60

Compound: NC(CCCCB(O)O)(C(=O)O)C1CCN(Cc2cccc(OC(F)(F)F)c2)CC1 (centres unmarked) [Example 103-A, 2-amino-6-borono-2-(1-(3-(trifluoromethoxy)benzyl)piperidin-4-yl)hexanoic acid dihydrochloride]
pIC50 [1, 3]: 6.60 to 10.00 | pIC50 [2, 4]: 6.60 to 10.00

Compound: COc1cc(F)c(CN2CCC(C(N)(CCCCB(O)O)C(=O)O)CC2)cc1OC (centres unmarked) [Example 96-A, 2-amino-6-borono-2-(1-(2-fluoro-4,5-dimethoxybenzyl)piperidin-4-yl)hexanoic acid dihydrochloride]
pIC50 [1, 3]: 6.60 to 10.00 | pIC50 [2, 4]: 6.00 to 6.60

Compound: NC(CCCCB(O)O)(C(=O)O)C1CCN(Cc2cccc3cccnc23)CC1 (centres unmarked) [Example 56-A, 2-amino-6-borono-2-(1-(quinolin-8-ylmethyl)piperidin-4-yl)hexanoic acid dihydrochloride]
pIC50 [1, 3]: 6.60 to 10.00 | pIC50 [2, 4]: 6.00 to 6.60

Compound: NC(CCCCB(O)O)(C(=O)O)C1CCN(C(=O)Nc2ccc(Cl)c(Cl)c2)CC1 (centres unmarked) [Example 42-A, 2-amino-6-borono-2-(1-(3,4-dichlorophenylcarbamoyl)piperidin-4-yl)hexanoic acid]
pIC50 [1, 3]: 6.00 to 6.60 | pIC50 [2, 4]: 5.70 to 6.00

Compound: NC(CCCCB(O)O)(C(=O)O)[C@H]1C[C@@H](N)C1 (stereo partly drawn) [Example 81-A, cis-2-amino-2-(3-aminocyclobutyl)-6-boronohexanoic acid dihydrochloride]
pIC50 [1, 3]: 6.60 to 10.00 | pIC50 [2, 4]: 6.60 to 10.00

Compound: N[C@@H]1CC[C@H]([C@](N)(CCCCB(O)O)C(=O)O)C1 [15-A, (R)-2-amino-2-((1S,3R)-3-aminocyclopentyl)-6-boronohexanoic acid dihydrochloride]
pIC50 [1, 3]: 6.60 to 10.00 | pIC50 [2, 4]: 6.60 to 10.00

Compound: NC(CCCCB(O)O)(C(=O)O)C1CCN(C(=O)Nc2ccc(Cl)cc2)C1 [36-A, 2-amino-6-borono-2-((S)-1-(4-chlorophenylcarbamoyl)pyrrolidin-3-yl)hexanoic acid hydrochloride]
pIC50 [1, 3]: 6.00 to 6.60 | pIC50 [2, 4]: 5.30 to 5.70

Compound: N#Cc1cccc(CN2CCC(C(N)(CCCCB(O)O)C(=O)O)CC2)c1 (centres unmarked) [Example 106-A, 2-amino-6-borono-2-(1-(3-cyanobenzyl)piperidin-4-yl)hexanoic acid dihydrochloride]
pIC50 [1, 3]: 6.00 to 6.60 | pIC50 [2, 4]: 6.00 to 6.60

Compound: NC(CCCCB(O)O)(C(=O)O)C1CCN(c2cc(C(F)(F)F)c3ccccc3n2)CC1 (centres unmarked) [6-A, 2-amino-6-borono-2-(1-(4-(trifluoromethyl)quinolin-2-yl)piperidin-4-yl)hexanoic acid]
pIC50 [1, 3]: 6.00 to 6.60 | pIC50 [2, 4]: 5.70 to 6.00

Compound: NC(CCCCB(O)O)(C(=O)O)[C@@H]1CCN(Cc2ccc(F)cc2)C1 (mixture of isomers) [37-A, 2-amino-6-borono-2-((R)-1-(4-fluorobenzyl)pyrrolidin-3-yl)hexanoic acid]
pIC50 [1, 3]: 6.00 to 6.60 | pIC50 [2, 4]: 5.70 to 6.00

Compound: CC(C)CCN1CCC(C(N)(CCCCB(O)O)C(=O)O)CC1 (centres unmarked) [Example 92-A, 2-amino-6-borono-2-(1-isopentylpiperidin-4-yl)hexanoic acid dihydrochloride]
pIC50 [1, 3]: 6.60 to 10.00 | pIC50 [2, 4]: 6.60 to 10.00

Compound: NC(CCCCB(O)O)(C(=O)O)C1CCC(c2ccc(Cl)cc2)CC1 (centres unmarked) [Example 86-A, 2-amino-6-borono-2-(4-(4-chlorophenyl)cyclohexyl)hexanoic acid hydrochloride]
pIC50 [1, 3]: < 5.30 | pIC50 [2, 4]: < 5.30

More lines, now with the values ahead:

pIC50 ([1]; Formula I compounds, Table 2): 6.60 to 10.00 | pIC50 [2, 5]: 6.60 to 10.00
Compound: NC(CCCCB(O)O)(CCNCCCc1ccc(F)c(F)c1)C(=O)O (centres unmarked) [compound 63, 2-amino-6-borono-2-(2-(3-(3,4-difluorophenyl)propylamino)ethyl)hexanoic acid dihydrochloride]

pIC50 ([1]; Formula I compounds, Table 2): 6.60 to 10.00 | pIC50 [2, 5]: 6.00 to 6.60
Compound: NC(CCCCB(O)O)(CCC1Cc2ccccc2CN1Cc1ccc(Cl)cc1)C(=O)O (centres unmarked) [compound 132, 2-amino-6-borono-2-(2-(2-(4-chlorobenzyl)-1,2,3,4-tetrahydroisoquinolin-3-yl)ethyl)hexanoic acid dihydrochloride]

pIC50 ([1]; Formula I compounds, Table 2): 5.70 to 6.00 | pIC50 [2, 5]: 5.70 to 6.00
Compound: COC[C@H]1CCCN1CC[C@](N)(CCCCB(O)O)C(=O)O [compound 3, (R)-2-amino-6-borono-2-(2-((R)-2-(methoxymethyl)pyrrolidin-1-yl)ethyl)hexanoic acid dihydrochloride]

pIC50 ([1]; Formula I compounds, Table 2): 6.60 to 10.00 | pIC50 [2, 5]: 6.60 to 10.00
Compound: CNC(CCCCB(O)O)(CCCN1CCCC1)C(=O)O (centres unmarked) [compound 137, 6-borono-2-(methylamino)-2-(3-(pyrrolidin-1-yl)propyl)hexanoic acid dihydrochloride]

pIC50 ([1]; Formula I compounds, Table 2): 6.00 to 6.60 | pIC50 [2, 5]: 5.70 to 6.00
Compound: NC(CCCCB(O)O)(CCN1CC=C(c2ccccc2)CC1)C(=O)O (centres unmarked) [compound 28, 2-amino-6-borono-2-(2-(4-phenyl-5,6-dihydropyridin-1(2H)-yl)ethyl)hexanoic acid dihydrochloride]

pIC50 ([1]; Formula I compounds, Table 2): 6.00 to 6.60 | pIC50 [2, 5]: 6.00 to 6.60
Compound: CC(C)(C)NCCC(N)(CCCCB(O)O)C(=O)O (centres unmarked) [compound 67, 2-amino-6-borono-2-(2-(tert-butylamino)ethyl)hexanoic acid dihydrochloride]

pIC50 ([1]; Formula I compounds, Table 2): 6.60 to 10.00 | pIC50 [2, 5]: 6.00 to 6.60
Compound: NC(CCCCB(O)O)(CCC1Cc2ccccc2CN1CC1CCCCC1)C(=O)O (centres unmarked) [compound 134, 2-amino-6-borono-2-(2-(2-(cyclohexylmethyl)-1,2,3,4-tetrahydroisoquinolin-3-yl)ethyl)hexanoic acid dihydrochloride]

pIC50 ([1]; Formula I compounds, Table 2): 6.60 to 10.00 | pIC50 [2, 5]: 6.60 to 10.00
Compound: N[C@](CCCCB(O)O)(C[C@H]1CCCN1)C(=O)O (stereo in doubt) [compound 115, (R)-2-amino-6-borono-2-((R)-pyrrolidin-2-ylmethyl)hexanoic acid]

pIC50 ([1]; Formula I compounds, Table 2): 6.00 to 6.60 | pIC50 [2, 5]: 5.70 to 6.00
Compound: CCN(CC)CCC(N)(CCCCB(O)O)C(=O)O (centres unmarked) [compound 37, 2-amino-6-borono-2-(2-(diethylamino)ethyl)hexanoic acid dihydrochloride]

pIC50 ([1]; Formula I compounds, Table 2): 6.60 to 10.00 | pIC50 [2, 5]: 6.60 to 10.00
Compound: NC(CCCCB(O)O)(CCNC1Cc2ccccc2C1)C(=O)O (centres unmarked) [compound 58, 2-amino-6-borono-2-(2-(2,3-dihydro-1H-inden-2-ylamino)ethyl)hexanoic acid dihydrochloride]

pIC50 ([1]; Formula I compounds, Table 2): 5.70 to 6.00 | pIC50 [2, 5]: 5.30 to 5.70
Compound: CNC(CCCCB(O)O)C(=O)O (centres unmarked) [compound 146, 6-borono-2-(methylamino)hexanoic acid hydrochloride]

pIC50 ([1]; Formula I compounds, Table 2): 5.30 to 5.70 | pIC50 [2, 5]: 5.30 to 5.70
Compound: NC(CCCCB(O)O)(CCN(CCO)Cc1ccccc1)C(=O)O (centres unmarked) [compound 20, 2-Amino-2-{2-[benzyl-(2-hydroxyethyl)-amino]-ethyl}-6-borono-hexanoic acid dihydrochloride]

pIC50 ([1]; Formula I compounds, Table 2): 6.60 to 10.00 | pIC50 [2, 5]: 6.60 to 10.00
Compound: CNC(CCCCB(O)O)(CCCNC1Cc2ccccc2C1)C(=O)O (centres unmarked) [compound 138, 6-borono-2-(3-(2,3-dihydro-1H-inden-2-ylamino)propyl)-2-(methylamino)hexanoic acid dihydrochloride]

pIC50 ([1]; Formula I compounds, Table 2): 6.00 to 6.60 | pIC50 [2, 5]: 5.70 to 6.00
Compound: COc1ccc(CC2(NCCC(N)(CCCCB(O)O)C(=O)O)CC2)cc1 (centres unmarked) [compound 61, 2-amino-6-borono-2-(2-(1-(4-methoxybenzyl)cyclopropylamino)ethyl)hexanoic acid]

pIC50 ([1]; Formula I compounds, Table 2): 6.60 to 10.00 | pIC50 [2, 5]: 6.60 to 10.00
Compound: CNC(CCCCB(O)O)(CCCNCc1ccc(Cl)c(Cl)c1)C(=O)O (centres unmarked) [compound 136, 6-borono-2-(3-(3,4-dichlorobenzylamino)propyl)-2-(methylamino)hexanoic acid dihydrochloride]

pIC50 ([1]; Formula I compounds, Table 2): 6.00 to 6.60 | pIC50 [2, 5]: 6.00 to 6.60
Compound: NC(CCCCB(O)O)(CCN1CCC(Cc2ccccc2)CC1)C(=O)O (centres unmarked) [compound 125, 2-amino-2-(2-(4-benzylpiperidin-1-yl)ethyl)-6-boronohexanoic acid dihydrochloride]

pIC50 ([1]; Formula I compounds, Table 2): 5.70 to 6.00 | pIC50 [2, 5]: 5.30 to 5.70
Compound: CCC(O)C(N)(CCCCB(O)O)C(=O)O (centres unmarked) [compound 108, 2-amino-6-borono-2-(1-hydroxypropyl)hexanoic acid hydrochloride]

pIC50 ([1]; Formula I compounds, Table 2): 5.70 to 6.00 | pIC50 [2, 5]: 5.30 to 5.70
Compound: CC(C)C(=O)NCCC(N)(CCCCB(O)O)C(=O)O (centres unmarked) [compound 120, 2-amino-6-borono-2-(2-isobutyramidoethyl)hexanoic acid hydrochloride]

pIC50 ([1]; Formula I compounds, Table 2): 5.30 to 5.70 | pIC50 [2, 5]: 5.30 to 5.70
Compound: C[C@@H](O)CNCC(N)(CCCCB(O)O)C(=O)O (stereo partly drawn) [compound 85, 2-amino-6-borono-2-(((R)-2-hydroxypropylamino)methyl)hexanoic acid dihydrochloride]

pIC50 ([1]; Formula I compounds, Table 2): 5.30 to 5.70 | pIC50 [2, 5]: 5.30 to 5.70
Compound: C[C@H](CO)NCCC(N)(CCCCB(O)O)C(=O)O (some centres unmarked) [compound 91]
